From US20240252650A1, “LIPID COMPOUNDS AND LIPID NANOPARTICLE COMPOSITIONS” (SUZHOU ABOGEN BIOSCIENCES CO., LTD., priority 2021, published 2024)

Key:
[1] = Lipid nanoparticle size and polydispersity by dynamic light scattering (Malvern Zetasizer Nano ZS); format: physicochemical
Experimental: (§1) Briefly, a cationic lipid provided herein, DSPC, cholesterol, and PEG-lipid were solubilized in ethanol at a molar ratio of 50:10:38.5:1.5, and mRNA were diluted in 10 to 50 mM citrate buffer, pH=4. The LNPs were prepared at a total lipid to mRNA weight ratio of approximately 10:1 to 30:1 by mixing the ethanolic lipid solution with the aqueous mRNA solution at a volume ratio of 1:3 using a microfluidic apparatus, total flow rate ranging from 9-30 mL/min. Ethanol were thereby removed and replaced by DPBS using dialysis. Finally, the lipid nanoparticles were filtered through a 0.2 μm sterile filter.
(§2) Lipid nanoparticle size were determined by dynamic light scattering using a Malvern Zetasizer Nano ZS (Malvern UK) using a 173° backscatter detection mode. The encapsulation efficiency of lipid nanoparticles were determined using a Quant-it Ribogreen RNA quantification assay kit (Thermo Fisher Scientific, UK) according to the manufacturer's instructions.

[2] = Encapsulation efficiency of lipid nanoparticles (Quant-it Ribogreen RNA quantification assay); format: physicochemical
Experimental: as §1, §2

[3] = Apparent pKa of LNP formulations by TNS fluorescence assay; format: physicochemical; conditions: LNP cationic lipid/DSPC/cholesterol/DMG-PEG 50/10/38.5/1.5 mol %
Experimental: As reported in literature, the apparent pKa of LNP formulations correlates with the delivery efficiency of LNPs for nucleic acids in vivo. The apparent pKa of each formulation was determined using an assay based on fluorescence of 2-(p-toluidino)-6-napthalene sulfonic acid (TNS). LNP formulations comprising of cationic lipid/DSPC/cholesterol/DMG-PEG (50/10/38.5/1.5 mol %) in PBS were prepared as described above. TNS was prepared as a 300 uM stock solution in distilled water. LNP formulations were diluted to 0.1 mg/ml total lipid in 3 mL of buffered solutions containing 50 mM sodium citrate, 50 mM sodium phosphate, 50 mM sodium borate, and 30 mM sodium chloride where the pH ranged from 3 to 9. An aliquot of the TNS solution was added to give a final concentration of 0.1 mg/ml and following vortex mixing fluorescence intensity was measured at room temperature in a Molecular Devices Spectramax iD3 spectrometer using excitation and mission wavelengths of 325 nm and 435 nm. A sigmoidal best fit analysis was applied to the fluorescence data and the pKa value was measured as the pH giving rise to half-maximal fluorescent intensity.

female Balb/c mice = assay: Animal study: LNPs encapsulating luciferase mRNA, tail vein injection, organ bioluminescence imaging (IVIS Spectrum CT); format: in vivo; conditions: luciferase mRNA LNP, 0.25 mg/kg tail vein; for luciferase expression in bone marrow (in words): 6 h; for bone marrow* Avg Radiance: bone marrow at 6 h; for brain* Avg Radiance: dissected brain at 6 h; for heart* Avg Radiance: dissected heart at 6 h; for kidney* Avg Radiance: dissected kidney at 6 h; for liver* Avg Radiance: dissected liver at 6 h; for lung* Avg Radiance: dissected lung at 6 h; for spleen* Avg Radiance: dissected spleen at 6 h
Experimental: Lipid nanoparticles comprising certain compounds provided herein encapsulating luciferase encoding (luciferase) mRNA were systemically administered to 6-8 week old female Balb/c mice (Charles River Lab, ZheJiang) at 0.25 mg/kg dose by tail vein injection, and mice blood were sampled at specific time points (e.g., 6 hours) post administration. Optical imaging was performed using the IVIS Spectrum CT device (PerkinElmer Inc., Paris, France). The luminescence level was evaluated by an ROI applied to the injection site zone (Living Image software, PerkinElmer Inc., Paris, France).
Radiance of heart, liver, spleen, lung, kidney, brain and bone marrow were taken at 6 h. Dissected organs were placed on a black sheet and imaged with IVIS Spectrum CT (PerkinElmer, Hopkinton, MA). To quantify bioluminescence emission signal, identical regions of interest (ROI) were positioned to encircle each organ region, the imaging signal was quantitated as average radiance (photons/s/cm2/steradian).

[4] = LNP encapsulating hEPO mRNA, table of Example 16
[5] = LNP: cationic lipid/DSPC/cholesterol/PEG-lipid 50:10:38.5:1.5, mRNA, table of Example 15

SMILES | polydispersity [1, 4] | size (nm) [1, 4] [nm] | Encapsulation Efficiency [2, 4] [%] | Apparant Pka ([3]; table of Example 16) | further results
CCCCCCCCCCC(=O)OCC(COC(=O)CCCCCCN(CCO)C1CCC1)COC(=O)CCCC(COC(=O)CCCCCCC)COC(=O)CCCCCCC (stereo not drawn) [Compound 50] | 0.158 | 89.62 | 91.68 | 7.175 | 
CCCCCCCCC(=O)OCC(COC(=O)CCCCCCN(CCO)C1CCC1)COC(=O)CCCC(COC(=O)CCCCCCC)COC(=O)CCCCCCC (stereo not drawn) [Compound 57] | 0.079 | 117 | 84.36 | 7.016 | 
CCCCCCCCCC(=O)OCC(COC(=O)CCCCCN(CCO)C1CCC1)COC(=O)CCCC(COC(=O)CCCCCCC)COC(=O)CCCCCCC (stereo not drawn) [Compound 58] | 0.129 | 104.3 | 77.87 | 6.97 | 
CCCCCCCCCCCCC(=O)OCC(COC(=O)CCCCCCN(CCO)C1CCC1)COC(=O)CCCC(COC(=O)CCCCCCC)COC(=O)CCCCCCC (stereo not drawn) [Compound 64] | 0.196 | 105.4 | 87.35 | 6.837 | 
CCCCCCCC(=O)OCC(CCCC(=O)OCC(COC(=O)CCCCCCC)COC(=O)CCCCCCN(CCO)C1CCC1)COC(=O)CCCCCCC (stereo not drawn) [Compound 78] |  |  |  |  | polydispersity [1, 5]: 0.043; size (nm) [1, 5]: 132 nm; Encapsulation Efficiency [2, 5]: 87.30%; Apparant Pka ([3]; table of Example 15): 6.864; luciferase expression in bone marrow (in words) (female Balb/c mice): mild expression; bone marrow* Avg Radiance (female Balb/c mice): 0.51 E+04 p/s/cm^2/sr; brain* Avg Radiance (female Balb/c mice): 3.25 E+04 p/s/cm^2/sr; heart* Avg Radiance (female Balb/c mice): 3.65 E+04 p/s/cm^2/sr; kidney* Avg Radiance (female Balb/c mice): 7.88 E+04 p/s/cm^2/sr; liver* Avg Radiance (female Balb/c mice): 11.41 E+06 p/s/cm^2/sr; lung* Avg Radiance (female Balb/c mice): 3.83 E+04 p/s/cm^2/sr; spleen* Avg Radiance (female Balb/c mice): 2.07 E+06 p/s/cm^2/sr
C=CCN(CCO)CCCCC(=O)OCC(COC(=O)CCCCCCCCCCCCCCCCC)COC(=O)CCCC(COC(=O)CCCCCCC)COC(=O)CCCCCCC (stereo not drawn) [Compound 84] | 0.069 | 84.76 | 92.56 | 6.597 | 
CCCCC/C=C\C/C=C\CCCCCCCC(=O)OCC(COC(=O)CCCC(COC(=O)CCCCCCC)COC(=O)CCCCCCC)COC(=O)OCCCN(CCC)CCO (stereo not drawn) [Compound 87] | 0.034 | 99.16 | 93.62 | 6.384 | 
CCCCCCCC(=O)OCC(CCCC(=O)OCC(COC(=O)CCCC(COC(=O)CCCCCCC)COC(=O)CCCCCCC)COC(=O)OCCN(C)CCO)COC(=O)CCCCCCC [Compound 91] | 0.023 | 72.66 | 86.02 | 5.811 | 
CCCCCCCCCCCCCCCCCC(=O)OCC(COC(=O)CCCCN(CCC)CCO)COC(=O)CCC(=O)OCC(COC(=O)CCCCCCC)COC(=O)CCCCCCC (stereo not drawn) [Compound 98] | 0.207 | 102.92 | 83.41 | 7.14 | 
CCCCCCCCC(CCCCCCCC)COC(=O)CCOCC(COCCC(=O)OCC(CCCCCCCC)CCCCCCCC)COC(=O)CCCCN(CCO)C1CCC1 [Compound 100] | 0.02588 | 67.27 | 91.54 | 6.535 | 
CCCCCCCCOC(=O)CCCCCCCC(=O)OCC(COC(=O)CCCCN(CCO)C1CCCCC1)COC(=O)CCCC(COC(=O)CCCCCCC)COC(=O)CCCCCCC (stereo not drawn) [Compound 104] | 0.02612 | 98.52 | 89.87 | 6.707 | 
CCCCC/C=C\C/C=C\CCCCCCCC(=O)OCC(COC(=O)CCCC(COC(=O)CCCCCCC)COC(=O)CCCCCCC)COC(=O)OCCCN(CCO)CCCC (stereo not drawn) [Compound 105] | 0.06244 | 80.11 | 89.77 | 6.262 | 
CCCCC/C=C\C/C=C\CCCCCCCC(=O)OCC(COC(=O)CCCC(COC(=O)CCCCCCC)COC(=O)CCCCCCC)COC(=O)OCCCN(CCO)C1CCCCC1 (stereo not drawn) [Compound 106] | 0.01154 | 77.71 | 77.94 | 6.091 | 
CCCCC/C=C\C/C=C\CCCCCCCC(=O)OCC(COC(=O)CCCC(COC(=O)CCCCCCC)COC(=O)CCCCCCC)OC(=O)CCCCN(CCO)C1CCCCC1 (stereo not drawn) [Compound 107] | 0.04979 | 66.11 | 89.61 | 6.441 | 
CCCCCCCCCCCCCCCCCC(=O)OCC(COC(=O)CCCC(COC(=O)CCCCCCC)COC(=O)CCCCCCC)OC(=O)CCCCN(CCO)C1CCC1 (stereo not drawn) [Compound 114] |  |  |  |  | polydispersity [1, 5]: 0.206; size (nm) [1, 5]: 89.95 nm; Encapsulation Efficiency [2, 5]: 87.34%; Apparant Pka ([3]; table of Example 15): 7.194; luciferase expression in bone marrow (in words) (female Balb/c mice): mild expression; bone marrow* Avg Radiance (female Balb/c mice): 0.2 E+04 p/s/cm^2/sr; brain* Avg Radiance (female Balb/c mice): 6.01 E+04 p/s/cm^2/sr; heart* Avg Radiance (female Balb/c mice): 5.49 E+04 p/s/cm^2/sr; kidney* Avg Radiance (female Balb/c mice): 7.63 E+04 p/s/cm^2/sr; liver* Avg Radiance (female Balb/c mice): 21.27 E+06 p/s/cm^2/sr; lung* Avg Radiance (female Balb/c mice): 6.22 E+04 p/s/cm^2/sr; spleen* Avg Radiance (female Balb/c mice): 2.7 E+06 p/s/cm^2/sr
CCCCC/C=C\C/C=C\CCCCCCCC(=O)OCC(COC(=O)CCC(OCCCCCCCC)OCCCCCCCC)COC(=O)OCCCN(CCO)C1CCC1 (stereo not drawn) [Compound 115] |  |  |  |  | polydispersity [1, 5]: 0.033; size (nm) [1, 5]: 71.59 nm; Encapsulation Efficiency [2, 5]: 91.21%; Apparant Pka ([3]; table of Example 15): 6.499; bone marrow* Avg Radiance (female Balb/c mice): −0.66 E+04 p/s/cm^2/sr; brain* Avg Radiance (female Balb/c mice): 14.59 E+04 p/s/cm^2/sr; heart* Avg Radiance (female Balb/c mice): 13.74 E+04 p/s/cm^2/sr; kidney* Avg Radiance (female Balb/c mice): 27.83 E+04 p/s/cm^2/sr; liver* Avg Radiance (female Balb/c mice): 44.21 E+06 p/s/cm^2/sr; lung* Avg Radiance (female Balb/c mice): 7.01 E+04 p/s/cm^2/sr; spleen* Avg Radiance (female Balb/c mice): 1.06 E+06 p/s/cm^2/sr
